Results published in patent US20080063679A1, “NANOCOMPOSITES WITH RESIDUAL BIOCIDAL AND BIOSTATIC PROPERTIES” (Quartek Corporation, priority 2006, published 2008).
In brackets after ≈: the same amount, converted by molar mass.

Key:
[1] = system: G+ & G−; test: Bactericidal effectiveness, comparison table; assay type: cell-based; conditions: Table 1
Text: (§1) Current antimicrobials have a short life with no residual effect. They lose there effectiveness in high protein environment. Certain bacteria developed resistance. They are toxic or cause irritations. Some are highly corrosive.

[2] = system: fungi; test: Fungicidal effectiveness, comparison table; assay type: cell-based; conditions: Table 1
Text: as §1

[3] = Minimum inhibitory concentration (MIC), comparison of biocidal nanocomposites and existing decontaminants; assay type: cell-based; conditions: Table 1
Text: as §1

[4] = Text: as §1
[5] = system: spores; test: Sporicidal effectiveness, comparison table; assay type: cell-based; conditions: Table 1
Text: as §1

For `OCl` [Hypochlorite], the “Effectiveness Bactericidal (G+ & G−)” value [1] was “very good”, the “Effectiveness Fungicidal” value [2] was “good” and the “Minimum inhibitory concentration (MIC)” value [3] was 150 µg/mL (≈ 2860 µM). The Non-corrosive [4] was “no”, the Contact time ([4]; Table 1) was 1 to 30 min and the “Effective in hard water” value ([4]; Table 1) was “poor”. For the same compound, the Effective in organics ([4]; Table 1) was “poor”, the Effective in soap ([4]; Table 1) was “yes” and the Residual activity ([4]; Table 1) was “poor”. The “Effectiveness Sporicidal” value [5] was “no/fair”.
